# Laboratory results as given in publication PMC11292009, “Mapping protein binding sites by photoreactive fragment pharmacophores” (Communications Chemistry, 2024).
# Assays:
# Assay type in all cases: binding
# STAT5B-NTD [1] = system: T1, STAT5B-NTD; test: Intact MS labeling screen, STAT5B-NTD conjugated with photocatalyst Ir-G2-PEG3-COOH (450 nm); conditions: 450 nm 10 min;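 also: 0.14 µL of 100 mM DMSO fragment stock added to the conjugate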
# T1 construct: His-SUMO (N, cleaved yes); made in house; host or cells: E. coli BL21 RILP
# Method: For the photocatalysis experiments, 1.4 µL photocatalyst (in 1.4 mM DMSO solution, 10 eq) was pre-incubated with 1.5 µL coupling reagent (0.75 µL, 5.6 mM EDC (20 eq)+0.75 µL 4.2 mM NHS and 1.5 µL 2.1 mM (15 eq) BOP for 30 min in dark. 30 µL STAT5B-NTD (in 7 µM concentration) was added and incubated further at room temperature overnight or at 37 °C for 1 h in dark. After addition of 0.14 µL PhP (in 100 mM DMSO) the solution was further incubated in dark for 1 h. Irradiation was carried out using 450 nm LED lamp (7.6Vx0A) for 10 min at 4 °C.
# (§1) During the analysis, the column temperature was maintained at a constant 60 °C, and a sample volume of 3 µL was injected for each analysis. Data acquisition was conducted in positive ion mode within the m/z 100–2000 (mass-to-charge ratio) range. For the full protocol and spectra of the hits, see Supplementary Note 2.
# STAT5B-NTD [2] = system: T1, STAT5B-NTD; test: Intact MS photoaffinity labeling screen, STAT5B-NTD (365 nm, UHPLC-MS); conditions: for MS labeling percentage, STAT5B: STAT5B-NTD, 365 nm 10 min, no photocatalyst; for STAT5B-NTD: experimental hit status flag (0/1);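 as to MS labeling percentage, STAT5B: 0.17 µL of 100 mM DMSO fragment stock added to the protein sample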
# Method: STAT5B protein in 7 µM concentration in pH 7.4 PBS buffer was pre-incubated with 0.17 µL PhP (in 100 mM DMSO solution) for 1 h at room temperature in dark. Irradiation was carried out at 4 °C for 10 min using 365 nm UV lamp.
# as §1
# myoglobin (Myo) = test: Intact protein MS photoaffinity labeling screen, myoglobin; conditions: intact protein MS after 10 min irradiation
# Method: (§2) Using a plate-based format with one fragment per well, each fragment was incubated with the target proteins for 15 min to allow for the formation of non-covalent interactions. […] Finally, the results were directly analyzed from the plate using intact protein mass spectrometry by observing the mass additions that correspond to successful labeling (Fig. 2c, for labeling % values see Supplementary data). The library was first characterized against three benchmark proteins like carbonic anhydrase (CA), lysozyme (Lyo), and myoglobin (Myo).
# KRas^G12D = system: T2, KRas^G12D; test: Intact MS photoaffinity labeling screen, KRas G12D (302 nm, LCMS-TOF); conditions: for MS labeling percentage, KRas: KRas G12D, 302 nm 10 min; for KRAS-G12D: experimental hit status flag (0/1)
# T2 construct: purchased GSK/GenScript
# Method: as §2
# (§3) The PhP library was screened against BRD4-BD1 and KRas^G12D as follows. […] The probe plate was placed on ice. 15 μL of protein stock solution (1 μM BRD4-BD1 (GSK/GenScript) or KRas^G12D (GSK/GenScript) in PBS buffer) was dispensed into wells containing fragments. The plate was left on ice for 15 min for incubation, then irradiated at 302 nm for 10 min, and centrifuged (1000 rpm, 1 min) to remove any bubbles. […] The deconvoluted spectra were analyzed using R Studio software.
# BRD4-BD1 = system: T3, BRD4-BD1; test: Intact MS photoaffinity labeling screen, BRD4-BD1 (302 nm, LCMS-TOF); conditions: for MS labeling percentage, BRD4: BRD4-BD1, 302 nm 10 min; for BRD4-BD1: experimental hit status flag (0/1)
# T3 construct: screened the PhP library against the first bromodomain of BRD4 (BRD4-BD1); purchased GSK/GenScript
# Method: as §2, §3
# [3] = system: carbonic anhydrase II (CA); test: Intact protein MS photoaffinity labeling screen, carbonic anhydrase; conditions: intact protein MS after 10 min irradiation
# Method: as §2
# lysozyme (Lyo) = test: Intact protein MS photoaffinity labeling screen, lysozyme; conditions: intact protein MS after 10 min irradiation
# Method: as §2
SMILES,"MS labeling percentage, STAT5B+photocat (STAT5B-NTD [1]) [%]","MS labeling percentage, STAT5B (STAT5B-NTD [2]) [%]",STAT5B-NTD (STAT5B-NTD [2]),"MS labeling percentage, Myo (myoglobin (Myo)) [%]","MS labeling percentage, KRas (KRas^G12D) [%]",KRAS-G12D (KRas^G12D),"MS labeling percentage, BRD4 (BRD4-BD1) [%]",BRD4-BD1 (BRD4-BD1),"MS labeling percentage, CA [3] [%]","MS labeling percentage, Lyo (lysozyme (Lyo)) [%]"
"CCOC(=O)c1c(NC(=O)CCC2(C)N=N2)sc2c1CCN(Cc1ccccc1)C2 [PhP002, N1=NC1(C)CCC(=O)Nc(s2)c(C(=O)OCC)c(c23)CCN(C3)Cc4ccccc4]",0,0,0,0.1,0.2,0,0.1,0,0.2,0
"Cc1[nH]c2ccc(CNC(=O)CCC3(C)N=N3)cc2c1C [PhP004, Cc([nH]1)c(C)c(c12)cc(cc2)CNC(=O)CCC3(C)N=N3]",13,2.9,0,0.3,0.7,0,–,0,0.1,0
"CCOC(=O)[C@H](NC(=O)CCC1(C)N=N1)c1ccccc1 [PhP005, c1ccccc1[C@H](C(=O)OCC)NC(=O)CCC2(C)N=N2]",1.5,2,0,0.1,0,0,0.1,0,0.1,0
"COc1ccc(-c2csc(CCNC(=O)CCC3(C)N=N3)n2)cc1 [PhP006, COc1ccc(cc1)-c2csc(n2)CCNC(=O)CCC3(C)N=N3]",3.3,0,0,0.3,1.3,0,2.3,0,0.6,0
"CN1C(=O)COc2ccc(NC(=O)CCC3(C)N=N3)cc21 [PhP007, O1CC(=O)N(C)c(c12)cc(cc2)NC(=O)CCC3(C)N=N3]",12.7,1,0,0.1,0.2,0,0.4,0,0.2,1.8
"CC1(CCC(=O)NCc2cncc3ccccc23)N=N1 [PhP008, N1=NC1(C)CCC(=O)NCc(cnc2)c(c23)cccc3]",19.6,2.9,0,0.6,1,0,0.5,0,0.9,0
"Cc1[nH]cnc1CNC(=O)CCC1(C)N=N1 [PhP009, Cc1[nH]cnc1CNC(=O)CCC2(C)N=N2]",1,1,0,0.4,0.7,0,0.7,0,0.6,0
"CC1(CCC(=O)NCc2ccc(N3CCC(CO)CC3)cc2)N=N1 [PhP010, N1=NC1(C)CCC(=O)NCc2ccc(cc2)N3CCC(CO)CC3]",0,1,0,0,0.5,0,0.3,0,0,0
"CC1(CCC(=O)Nc2nc(-c3c[nH]c(C(N)=O)c3)cs2)N=N1 [PhP011, N1=NC1(C)CCC(=O)Nc2nc(cs2)-c3c[nH]c(c3)C(=O)N]",3.4,2,0,0,0.2,0,0.2,0,0,0
"CC(Cc1cccc(OCc2ccccc2)c1)NC(=O)CCC1(C)N=N1 (centres unmarked) [PhP013, N1=NC1(C)CCC(=O)NC(C)Cc2cccc(c2)OCc3ccccc3]",8.8,0,0,0.3,–,0,40.6,0,0.4,0.3
"COC(=O)C(Cc1c[nH]c2ccccc12)NC(=O)CCC1(C)N=N1 (centres unmarked) [PhP014, N1=NC1(C)CCC(=O)NC(C(=O)OC)Cc(c[nH]2)c(c23)cccc3]",7.7,2,0,0.1,1.3,0,0.4,0,0.3,0.3
"CC1(CCC(=O)NC2CCCC(NC(=O)OC(C)(C)C)C2)N=N1 (centres unmarked) [PhP015, CC(C)(C)OC(=O)NC1CCCC(C1)NC(=O)CCC2(C)N=N2]",1.6,1,0,0.2,0.6,0,0.3,0,0.3,1.1
"CC1(CCC(=O)NC2CCc3nc(C(C)(C)C)cn3C2)N=N1 (centres unmarked) [PhP016, CC(C)(C)c(c1)nc(n12)CCC(C2)NC(=O)CCC3(C)N=N3]",8.9,0,0,0.2,0.2,0,0.3,0,0.6,0
